In patent publication US20250145594A1, “MODULATORS OF THE INTEGRATED STRESS PATHWAY” (Calico Life Sciences LLC, priority 2020, published 2025):

System: ATF4 luciferase reporter in HEK293T cells
Experiment: ATF4-Luc assay (in vitro model of VWMD)
Format: cell-based, human
Conditions: HEK293T cells carrying the ATF4 luciferase reporter, 1 μg/mL tunicamycin, One Glo luminescence
Procedure, shortened: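 Stable HEK293T line expressing firefly luciferase behind the human ATF4 5′-UTR, treated with 1 μg/mL tunicamycin plus compound for 7 hours. Luminescence read with One Glo; EC50 determined.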

O=C(NC12CC(n3cc(N4CC[C@H](OC(F)(F)F)C4)cn3)(C1)C2)[C@H]1C[C@@H](O)c2cc(Cl)ccc2O1 [Compound 355, (2R,4R)-6-chloro-4-hydroxy-N-(3-{4-[(3S)-3-(trifluoromethoxy)pyrrolidin-1-yl]-1H-pyrazol-1-yl}bicyclo[1.1.1]pentan-1-yl)-3,4-dihydro-2H-1-benzopyran-2-carboxamide]
EC50 (Homo sapiens, HEK-293T, 7 h): 10 to 50 nM

O=C(NC12CC(c3cc(OCCCOC(F)(F)F)ncn3)(C1)C2)[C@H]1C[C@@H](O)c2cc(Cl)c(F)cc2O1 [Compound 649, (2R,4R)-6-chloro-7-fluoro-4-hydroxy-N-(3-{6-[3-(trifluoromethoxy)propoxy]pyrimidin-4-yl}bicyclo[1.1.1]pentan-1-yl)-3,4-dihydro-2H-1-benzopyran-2-carboxamide]
EC50 (Homo sapiens, HEK-293T, 7 h): < 10 nM

O=C(NC12CC(n3cc(-c4ccc(C(F)F)cn4)cn3)(C1)C2)[C@H]1C[C@@H](O)c2cc(Cl)c(F)cc2O1 [Compound 569, (2R,4R)-6-chloro-N-(3-{4-[5-(difluoromethyl)pyridin-2-yl]-1H-pyrazol-1-yl}bicyclo[1.1.1]pentan-1-yl)-7-fluoro-4-hydroxy-3,4-dihydro-2H-1-benzopyran-2-carboxamide]
EC50 (Homo sapiens, HEK-293T, 7 h): < 10 nM

O=C(NC12CC(n3cc(OCCOC(F)(F)F)cn3)(C1)C2)[C@@H]1C[C@@H](O)c2cc(Cl)c(F)cc2O1 [Compound 432, (2S,4R)-6-chloro-7-fluoro-4-hydroxy-N-(3-{4-[2-(trifluoromethoxy)ethoxy]-1H-pyrazol-1-yl}bicyclo[1.1.1]pentan-1-yl)-3,4-dihydro-2H-1-benzopyran-2-carboxamide]
EC50 (Homo sapiens, HEK-293T, 7 h): < 10 nM

O=C(NC12CC(n3cc(N4CCC(OC(F)(F)F)C4)cn3)(C1)C2)[C@H]1C[C@@H](O)c2cc(Cl)ccc2O1 (stereo partly drawn) [Compound 325, (2R,4R)-6-chloro-4-hydroxy-N-(3-{4-[3-(trifluoromethoxy)pyrrolidin-1-yl]-1H-pyrazol-1-yl}bicyclo[1.1.1]pentan-1-yl)-3,4-dihydro-2H-1-benzopyran-2-carboxamide]
EC50 (Homo sapiens, HEK-293T, 7 h): < 10 nM

COc1ccc2nn(C34CCC(NC(=O)COc5ccc(Cl)c(F)c5)(CC3)[C@@H](O)C4)cc2c1 [Compound 597, 2-(4-chloro-3-fluorophenoxy)-N-[(2S)-2-hydroxy-4-(5-methoxy-2H-indazol-2-yl)bicyclo[2.2.2]octan-1-yl]acetamide]
EC50 (Homo sapiens, HEK-293T, 7 h): 10 to 50 nM

O=C(NC12CC(n3cc(C(=O)N4CC(COC(F)(F)F)C4)cn3)(C1)C2)[C@H]1C[C@@H](O)c2ccccc2O1 [Compound 375, (2R,4R)-4-hydroxy-N-[3-(4-{3-[(trifluoromethoxy)methyl]azetidine-1-carbonyl}-1H-pyrazol-1-yl)bicyclo[1.1.1]pentan-1-yl]-3,4-dihydro-2H-1-benzopyran-2-carboxamide]
EC50 (Homo sapiens, HEK-293T, 7 h): 250 to 500 nM

O=C(COc1ccc(Cl)c(F)c1)NC12CC(n3cc(C(=O)N4CC[C@H](OC(F)(F)F)C4)nn3)(C1)C2 [Compound 599, 2-(4-chloro-3-fluorophenoxy)-N-(3-{4-[(3S)-3-(trifluoromethoxy)pyrrolidine-1-carbonyl]-1H-1,2,3-triazol-1-yl}bicyclo[1.1.1]pentan-1-yl)acetamide]
EC50 (Homo sapiens, HEK-293T, 7 h): < 10 nM

O=C(NC12CC(n3cnc(C(=O)N4CC(OC(F)(F)F)C4)c3)(C1)C2)[C@H]1C[C@@H](O)c2cc(Cl)ccc2O1 [Compound 395, (2R,4R)-6-chloro-4-hydroxy-N-(3-{4-[3-(trifluoromethoxy)azetidine-1-carbonyl]-1H-imidazol-1-yl}bicyclo[1.1.1]pentan-1-yl)-3,4-dihydro-2H-1-benzopyran-2-carboxamide]
EC50 (Homo sapiens, HEK-293T, 7 h): 10 to 50 nM

O=C(NC12CC(n3cc(C(=O)N4CCC(F)(F)C4)cn3)(C1)C2)[C@H]1C[C@@H](O)c2cc(Cl)ccc2O1 [Compound 384, (2R,4R)-6-chloro-N-{3-[4-(3,3-difluoropyrrolidine-1-carbonyl)-1H-pyrazol-1-yl]bicyclo[1.1.1]pentan-1-yl}-4-hydroxy-3,4-dihydro-2H-1-benzopyran-2-carboxamide]
EC50 (Homo sapiens, HEK-293T, 7 h): 250 to 500 nM

O=C(NC12CC(n3cc([C@H]4C[C@@H](OC(F)F)C4)nn3)(C1)C2)[C@H]1C[C@@H](O)c2cc(Cl)ccc2O1 [Compound 544, (2R,4R)-6-chloro-N-(3-{4-[(1s,3S)-3-(difluoromethoxy)cyclobutyl]-1H-1,2,3-triazol-1-yl}bicyclo[1.1.1]pentan-1-yl)-4-hydroxy-3,4-dihydro-2H-1-benzopyran-2-carboxamide]
EC50 (Homo sapiens, HEK-293T, 7 h): < 10 nM

O=C(NC12CC(c3ccnc(-n4cc(C(F)(F)F)cn4)c3)(C1)C2)[C@H]1C[C@@H](O)c2cc(Cl)c(F)cc2O1 [Compound 561, (2R,4R)-6-chloro-7-fluoro-4-hydroxy-N-(3-{2-[4-(trifluoromethyl)-1H-pyrazol-1-yl]pyridin-4-yl}bicyclo[1.1.1]pentan-1-yl)-3,4-dihydro-2H-1-benzopyran-2-carboxamide]
EC50 (Homo sapiens, HEK-293T, 7 h): < 10 nM

O=C(NC12CC(n3cc(-c4ccc(C(F)(F)F)cn4)cn3)(C1)C2)[C@@H]1C[C@@H](O)c2cc(Cl)c(F)cc2O1 [Compound 477, (2S,4R)-6-chloro-7-fluoro-4-hydroxy-N-(3-{4-[5-(trifluoromethyl)pyridin-2-yl]-1H-pyrazol-1-yl}bicyclo[1.1.1]pentan-1-yl)-3,4-dihydro-2H-1-benzopyran-2-carboxamide]
EC50 (Homo sapiens, HEK-293T, 7 h): < 10 nM

O=C(CO[C@H]1C[C@@H](OC(F)(F)F)C1)N[C@@H]1C[C@@H]2C[C@H]1C[C@H]2NC(=O)[C@@H]1C[C@@H](O)c2cc(Cl)ccc2O1 [Compound 393, (2S,4R)-6-chloro-4-hydroxy-N-[(1S,2R,4S,5R)-5-(2-{[cis-3-(trifluoromethoxy)cyclobutyl]oxy}acetamido)bicyclo[2.2.1]heptan-2-yl]-3,4-dihydro-2H-1-benzopyran-2-carboxamide]
EC50 (Homo sapiens, HEK-293T, 7 h): 50 to 250 nM

O=C(NC12CC(n3cc4c(n3)CN(CCOC(F)(F)F)C4)(C1)C2)[C@H]1C[C@@H](O)c2cc(Cl)c(F)cc2O1 [Compound 512, (2R,4R)-6-chloro-7-fluoro-4-hydroxy-N-(3-{5-[2-(trifluoromethoxy)ethyl]-5,6-dihydropyrrolo[3,4-c]pyrazol-2(4H)-yl}bicyclo[1.1.1]pentan-1-yl)-3,4-dihydro-2H-1-benzopyran-2-carboxamide]
EC50 (Homo sapiens, HEK-293T, 7 h): 10 to 50 nM

O=C(NC12CC(OCC(=O)N3CCC(OC(F)(F)F)C3)(C1)C2)[C@H]1C[C@@H](O)c2cc(Cl)ccc2O1 (stereo partly drawn) [Compound 334, (2R,4R)-6-chloro-4-hydroxy-N-(3-{2-oxo-2-[3-(trifluoromethoxy)pyrrolidin-1-yl]ethoxy}bicyclo[1.1.1]pentan-1-yl)-3,4-dihydro-2H-1-benzopyran-2-carboxamide]
EC50 (Homo sapiens, HEK-293T, 7 h): 50 to 250 nM

O=C(NC12CC(n3cc(-c4ccn(CC(F)(F)F)c4)cn3)(C1)C2)[C@H]1C[C@@H](O)c2cc(Cl)ccc2O1 [Compound 547, (2R,4R)-6-chloro-4-hydroxy-N-(3-{4-[1-(2,2,2-trifluoroethyl)-1H-pyrrol-3-yl]-1H-pyrazol-1-yl}bicyclo[1.1.1]pentan-1-yl)-3,4-dihydro-2H-1-benzopyran-2-carboxamide]
EC50 (Homo sapiens, HEK-293T, 7 h): < 10 nM

O=C(NC12CC(n3ccc([C@H]4C[C@@H](OC(F)(F)F)C4)n3)(C1)C2)[C@H]1C[C@@H](O)c2cc(Cl)ccc2O1 [Compound 314, (2R,4R)-6-chloro-4-hydroxy-N-(3-{3-[cis-3-(trifluoromethoxy)cyclobutyl]-1H-pyrazol-1-yl}bicyclo[1.1.1]pentan-1-yl)-3,4-dihydro-2H-1-benzopyran-2-carboxamide]
EC50 (Homo sapiens, HEK-293T, 7 h): 50 to 250 nM

O=C(CO[C@H]1C[C@@H](OC(F)(F)F)C1)NC12CC(NC(=O)[C@@H]3CC(O)c4cc(Cl)ccc4O3)(C1)C2 (stereo in doubt) [Compound 295, (2S,4S)-6-chloro-4-hydroxy-N-[3-(2-{[cis-3-(trifluoromethoxy)cyclobutyl]oxy}acetamido)bicyclo[1.1.1]pentan-1-yl]-3,4-dihydro-2H-1-benzopyran-2-carboxamide]
EC50 (7 hours): 10 to 50 nM

O=C(NC12CC(n3cc(C(=O)N4CC[C@H](COC(F)(F)F)C4)cn3)(C1)C2)[C@H]1C[C@@H](O)c2cc(Cl)ccc2O1 [Compound 400, (2R,4R)-6-chloro-4-hydroxy-N-[3-(4-{(3S)-3-[(trifluoromethoxy)methyl]pyrrolidine-1-carbonyl}-1H-pyrazol-1-yl)bicyclo[1.1.1]pentan-1-yl]-3,4-dihydro-2H-1-benzopyran-2-carboxamide]
EC50 (Homo sapiens, HEK-293T, 7 h): 10 to 50 nM

O=C(NC12CC(n3cc(-c4ccc(Cl)c(F)c4)nn3)(C1)C2)[C@H]1C[C@@H](O)c2cc(Cl)ccc2O1 [Compound 358, (2R,4R)-6-chloro-N-{3-[4-(4-chloro-3-fluorophenyl)-1H-1,2,3-triazol-1-yl]bicyclo[1.1.1]pentan-1-yl}-4-hydroxy-3,4-dihydro-2H-1-benzopyran-2-carboxamide]
EC50 (Homo sapiens, HEK-293T, 7 h): < 10 nM

C[C@H](COC(F)(F)F)N(C)c1cnn(C23CC(NC(=O)[C@H]4C[C@@H](O)c5cc(Cl)ccc5O4)(C2)C3)c1 [Compound 448, (2R,4R)-6-chloro-4-hydroxy-N-[3-(4-{methyl[(2R)-1-(trifluoromethoxy)propan-2-yl]amino}-1H-pyrazol-1-yl)bicyclo[1.1.1]pentan-1-yl]-3,4-dihydro-2H-1-benzopyran-2-carboxamide]
EC50 (Homo sapiens, HEK-293T, 7 h): 500 to 2000 nM

O=C(NC12CC(n3cc(-c4ccc(C(F)(F)F)cn4)cn3)(C1)C2)[C@H]1C[C@H](O)c2cc(C(F)(F)F)ccc2O1 [Compound 549, (2R,4S)-4-hydroxy-6-(trifluoromethyl)-N-(3-{4-[5-(trifluoromethyl)pyridin-2-yl]-1H-pyrazol-1-yl}bicyclo[1.1.1]pentan-1-yl)-3,4-dihydro-2H-1-benzopyran-2-carboxamide]
EC50 (Homo sapiens, HEK-293T, 7 h): < 10 nM

O=C(COc1ccc(Cl)c(F)c1)N[C@H]1C[C@H]2O[C@@H]1CC2c1nnc([C@H]2C[C@@H](OC(F)(F)F)C2)o1 (mixture of isomers) [Compound 168, 2-(4-chloro-3-fluorophenoxy)-N-[rac-(1R,2S,4R,5S)-5-{5-[cis-3-(trifluoromethoxy)cyclobutyl]-1,3,4-oxadiazol-2-yl}-7-oxabicyclo[2.2.1]heptan-2-yl]acetamide]
EC50 (Homo sapiens, HEK-293T, 7 h): 250 to 500 nM
